From publication doi:10.1101/2024.10.18.619128v2 (biorxiv, 2024)
Like-named read-outs stand apart in the source and are kept apart here. One block for each compound: values may come before it.

Experiments:
ALDH1A3 = ALDH1A3 (Homo sapiens, UniProt P47895); experiment: HPLC retinaldehyde dehydrogenase assay; assay type: biochemical
ALDH1A2 = ALDH1A2 (Homo sapiens, UniProt O94788); experiment: HPLC retinaldehyde dehydrogenase assay; assay type: biochemical
ALDH1A1 = ALDH1A1 (Homo sapiens, UniProt P00352); experiment: HPLC retinaldehyde dehydrogenase assay; assay type: biochemical
BT474 = experiment: cells; conditions: Homo sapiens, BT-474, 48 h
HCC1419 = experiment: cells; conditions: Homo sapiens, HCC1419, 48 h
HCC1569 = experiment: cells; conditions: Homo sapiens, HCC1569, 48 h
HCC1954 = experiment: cells; conditions: Homo sapiens, HCC1954, 48 h
MCF7 = experiment: cells; conditions: Homo sapiens, MCF7, 48 h
MDAMB436 = experiment: cells; conditions: Homo sapiens, MDA-MB-436, 48 h
MAXFHER 1162 = experiment: cells; conditions: read-out: DIMATE
MAXFHER 2690 = experiment: cells; conditions: read-out: DIMATE
MAXFHER 4035 = experiment: cells; conditions: read-out: DIMATE
MAXFHER BR64 = experiment: cells; conditions: read-out: DIMATE
MAXFTN 1384 = experiment: cells; conditions: read-out: DIMATE
MAXFTN 2990 = experiment: cells; conditions: read-out: DIMATE
MAXFTN 401 = experiment: cells; conditions: read-out: DIMATE
MAXFTN 449 = experiment: cells; conditions: read-out: DIMATE
MAXFTN 508 = experiment: cells; conditions: read-out: DIMATE
MAXFTN BR120 = experiment: cells; conditions: read-out: DIMATE
ALDH3A1 = ALDH3A1 (Homo sapiens, UniProt P30838); experiment: fluorimetric NADPH assay, global inhibition fit; assay type: biochemical; conditions: non-competitive; 4-nitrobenzaldehyde substrate, 1 mM NADP+, 37 °C, pH 7.2
BT20 = experiment: cells; conditions: Homo sapiens, BT-20, 48 h, read-out: III / CEY1410
DU4475 = experiment: cells; conditions: Homo sapiens, DU-4475, 48 h, read-out: III / CEY1410
HCC1143 = experiment: cells; conditions: Homo sapiens, HCC1143, 48 h, read-out: III / CEY1410
HCC1937 = experiment: cells; conditions: Homo sapiens, HCC1937, 48 h, read-out: III / CEY1410
HCC70 = experiment: cells; conditions: Homo sapiens, HCC70, 48 h, read-out: III / CEY1410
HS578T = experiment: cells; conditions: Homo sapiens, Hs-578T, 48 h, read-out: III / CEY1410
MDAMB231 = experiment: cells; conditions: Homo sapiens, MDA-MB-231, 48 h, read-out: III / CEY1410
MDAMB361 = experiment: cells; conditions: Homo sapiens, MDA-MB-361, 48 h, read-out: III / CEY1410
MDAMB453 = experiment: cells; conditions: Homo sapiens, MDA-MB-453, 48 h, read-out: III / CEY1410
MDAMB468 = experiment: cells; conditions: Homo sapiens, MDA-MB-468, 48 h, read-out: III / CEY1410
SKBR3 = experiment: cells; conditions: Homo sapiens, SK-BR-3, 48 h, read-out: III / CEY1410
T47D = experiment: cells; conditions: Homo sapiens, T47D, 48 h, read-out: III / CEY1410

Sequence of ALDH1A1 (P00352 whole entry): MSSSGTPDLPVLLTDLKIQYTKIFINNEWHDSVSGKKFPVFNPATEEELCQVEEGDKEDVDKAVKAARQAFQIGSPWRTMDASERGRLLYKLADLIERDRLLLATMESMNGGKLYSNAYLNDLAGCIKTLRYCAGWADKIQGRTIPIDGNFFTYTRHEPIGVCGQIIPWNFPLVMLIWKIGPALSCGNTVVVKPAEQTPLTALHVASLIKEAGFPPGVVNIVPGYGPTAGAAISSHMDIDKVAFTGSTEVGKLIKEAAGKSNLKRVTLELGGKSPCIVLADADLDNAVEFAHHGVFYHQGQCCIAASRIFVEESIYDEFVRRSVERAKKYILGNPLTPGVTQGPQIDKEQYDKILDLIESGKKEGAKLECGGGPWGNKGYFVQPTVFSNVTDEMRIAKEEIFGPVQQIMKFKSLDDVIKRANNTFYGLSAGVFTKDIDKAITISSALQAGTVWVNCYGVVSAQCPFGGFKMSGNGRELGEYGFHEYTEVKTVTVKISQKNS
Sequence of ALDH3A1 (P30838 whole entry): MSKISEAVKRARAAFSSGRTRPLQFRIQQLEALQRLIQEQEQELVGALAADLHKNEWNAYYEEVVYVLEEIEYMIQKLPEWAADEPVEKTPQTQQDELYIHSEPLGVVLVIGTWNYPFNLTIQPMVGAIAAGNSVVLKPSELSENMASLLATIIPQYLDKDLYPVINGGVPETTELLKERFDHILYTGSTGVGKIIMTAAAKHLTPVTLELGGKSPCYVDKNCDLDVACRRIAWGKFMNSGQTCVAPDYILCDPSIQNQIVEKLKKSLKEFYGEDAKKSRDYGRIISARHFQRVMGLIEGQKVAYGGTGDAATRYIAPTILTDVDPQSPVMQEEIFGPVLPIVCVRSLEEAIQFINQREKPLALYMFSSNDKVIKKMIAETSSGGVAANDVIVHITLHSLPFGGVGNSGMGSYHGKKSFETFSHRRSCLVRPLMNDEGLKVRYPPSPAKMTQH
Sequence of ALDH1A2 (O94788 whole entry): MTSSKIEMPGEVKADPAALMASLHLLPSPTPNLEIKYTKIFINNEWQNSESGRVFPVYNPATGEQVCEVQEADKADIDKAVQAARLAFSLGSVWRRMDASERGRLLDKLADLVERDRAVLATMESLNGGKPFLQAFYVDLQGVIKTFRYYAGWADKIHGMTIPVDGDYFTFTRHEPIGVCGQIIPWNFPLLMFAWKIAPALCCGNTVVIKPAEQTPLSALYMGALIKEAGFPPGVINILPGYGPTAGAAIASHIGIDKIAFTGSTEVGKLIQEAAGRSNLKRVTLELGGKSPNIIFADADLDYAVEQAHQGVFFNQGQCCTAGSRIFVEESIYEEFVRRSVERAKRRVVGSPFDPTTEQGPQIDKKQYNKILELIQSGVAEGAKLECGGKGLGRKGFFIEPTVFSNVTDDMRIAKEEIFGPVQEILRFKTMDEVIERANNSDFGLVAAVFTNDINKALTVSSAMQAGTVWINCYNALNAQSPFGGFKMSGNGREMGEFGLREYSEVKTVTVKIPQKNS
Sequence of ALDH1A3 (P47895 whole entry): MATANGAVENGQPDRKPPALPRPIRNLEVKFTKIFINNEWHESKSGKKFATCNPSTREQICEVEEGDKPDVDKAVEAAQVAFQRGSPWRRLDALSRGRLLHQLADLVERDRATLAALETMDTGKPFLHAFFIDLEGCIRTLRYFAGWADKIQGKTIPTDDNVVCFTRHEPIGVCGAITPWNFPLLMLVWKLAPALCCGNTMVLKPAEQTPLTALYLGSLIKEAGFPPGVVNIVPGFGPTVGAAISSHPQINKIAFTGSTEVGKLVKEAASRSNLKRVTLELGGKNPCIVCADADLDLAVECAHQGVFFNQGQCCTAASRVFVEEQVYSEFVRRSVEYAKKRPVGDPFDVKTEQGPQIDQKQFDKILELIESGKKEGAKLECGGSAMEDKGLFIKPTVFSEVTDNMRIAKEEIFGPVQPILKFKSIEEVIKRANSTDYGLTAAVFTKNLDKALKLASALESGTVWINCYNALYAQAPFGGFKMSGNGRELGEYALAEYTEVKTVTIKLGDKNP

IC50 (ALDH1A3): 5.7 ± 0.5 µM | IC50 (ALDH1A2): 6.4 ± 0.9 µM | IC50 (ALDH1A1): 25 ± 2 µM | GI50 (BT474; read-out: I / DIMATE): 3 µM | GI50 (HCC1419; read-out: I / DIMATE): 7.9 µM | GI50 (HCC1569; read-out: I / DIMATE): 5 µM | GI50 (HCC1954; read-out: I / DIMATE): > 30 µM | GI50 (MCF7; read-out: I / DIMATE): 10.4 µM | GI50 (MDAMB436; read-out: I / DIMATE): 3.9 µM
Compound: CSC(=O)C#CC(C)(C)N(C)C [DIMATE, 4-dimethylamino-4-methyl-pent-2-ynthioic acid-S-methyl ester]
GI50 (MAXFHER 1162): 1.42 µM | GI50 (MAXFHER 2690): 2.65 µM | GI50 (MAXFHER 4035): 2.55 µM | GI50 (MAXFHER BR64): 1.05 µM | GI50 (MAXFTN 1384): 7.32 µM | GI50 (MAXFTN 2990): 4.29 µM | GI50 (MAXFTN 401): 0.52 µM | GI50 (MAXFTN 449): 0.46 µM | GI50 (MAXFTN 508): 1.11 µM | GI50 (MAXFTN BR120): 4.06 µM

Ki (ALDH3A1): 233 ± 16 µM
Compound: ABD0171

Compound: CN(C)C(C)(C)C#CC(=O)O [CEY1410]
GI50 (BT20): > 30 µM | GI50 (BT474; read-out: III / CEY1410): > 30 µM | GI50 (DU4475): > 30 µM | GI50 (HCC1143): > 30 µM | GI50 (HCC1419; read-out: III / CEY1410): > 30 µM | GI50 (HCC1569; read-out: III / CEY1410): > 30 µM | GI50 (HCC1937): > 30 µM | GI50 (HCC1954; read-out: III / CEY1410): > 30 µM | GI50 (HCC70): > 30 µM | GI50 (HS578T): > 30 µM | GI50 (MCF7; read-out: III / CEY1410): > 30 µM | GI50 (MDAMB231): > 30 µM | GI50 (MDAMB361): > 30 µM | GI50 (MDAMB436; read-out: III / CEY1410): > 30 µM | GI50 (MDAMB453): > 30 µM | GI50 (MDAMB468): > 30 µM | GI50 (SKBR3): > 30 µM | GI50 (T47D): > 30 µM
